Patent US20160136295A1, “BIOMARKERS FOR TREATMENT WITH ANTI-TUBULIN CHEMOTHERAPEUTIC COMPOUNDS” (GENENTECH, INC., priority 2012, published 2016)

What was measured:
HCT116 cells = test: Live time-lapse imaging of mitotic fate; assay type: cell-based, human
Experimental: HCT116 parental or FBW7−/− cells expressing shLacZ or shMcl-1 were plated at 15,000-30,000 cells per well in 96-well μ-plates (ibidi GmbH) and infected with GFP-H2B baculovirus (Invitrogen) 24 hours prior to adding paclitaxel or vincristine. Cells were imaged live at 37° C. with 5% CO2 using a Nikon TiE® microscope with a Cool Snap® CCD camera (Roper Scientific) and a Plan Apo VC 20× 0.75 NA objective. Three images with 6 μm z-steps were acquired for each position every 10 minutes for 43 hours. Mitotic fate was analyzed manually using NIS-Elements software (Nikon) and numerical data was complied and statistically analyzed using Excel (Microsoft). Fifty mitotic cells were analyzed for each condition and p-values were calculated for the change in the number of cells that exited mitosis or entered apoptosis using the one-tailed Fisher's exact test.

[1] = tested on: ovarian cancer cell lines; test: Cell viability of ovarian cancer cell lines by FBW7 status; assay type: cell-based, human; details: FBW7-wild-type ovarian cancer cell lines that undergo mitotic arrest, relative to FBW7-mutant cells
Experimental: (§1) The viability of cancer cell lines, and MEFs in which genes encoding IAPs had been knocked out, was analysed by using the CellTiter-Glo Luminescent Cell Viability Assay® (Promega). Cells were treated in triplicate with anti-tubulin agents for the indicated times, using dimethylsulphoxide treatment as a control. The viability of BCL2-family-member-null MEFs was analysed by propidium iodide staining, as described previously (Chen, L. et al. (2005) Molecular cell 17:393-403), after treatment with anti-tubulin agents for 48 h. Cell synchronization was achieved by culture either in serum-free medium for 12-16 h or in medium containing 2 mM thymidine for 18-24 h, release from the thymidine block with three washes in PBS, followed by culture for 8-12 h in complete growth media (compositions are described in the Supplementary Information). Cells then underwent a second thymidine block for 16-20 h, three further washes in PBS and release into complete medium containing the indicated reagents. To block MCL1 degradation, […] MG132 was added as cells entered mitotic arrest, as assessed by visual inspection. See the Examples for full methods.

[2] = tested on: murine embryonic fibroblasts (MEFs); test: Viability of BCL2-family-member-null MEFs by propidium iodide staining after anti-tubulin agents; assay type: cell-based; details: for killing (cell viability): treated 48 hours; for sensitivity to killing: 48 hours
Experimental: as §1

[3] = tested on: FBW7-WT, FBW7−/− or FBW7 mutant colon cancer cell lines (HCT116, DLD1); test: Cell viability of colon cancer cell lines by FBW7 status (CellTiter-Glo); assay type: cell-based, human; details: 48 hours
Experimental: as §1
were synthesized by Ambion and experiments were performed as described (Huang, H. C., et al (2009) Cancer cell 16:347-358). For viability experiments using stable cell lines transfected with doxycycline-inducible shRNAs to LacZ or Mcl-1 ORF, cells were plated in 10 cm2 plates with 0.2 μg/mL doxycycline for two days. On the third day, cells were plated in to 96-well plates at 5×10^3 per well for viability assays as described above. […] For western blot analysis, cells were harvested at indicated time points and processed as described above.

[4] = tested on: ovarian cancer cell lines; test: Mitotic arrest in asynchronous ovarian cancer cell lines (western blot, phospho-histone H3 ELISA); assay type: cell-based, human; details: unsynchronized cell lines, 200 nM paclitaxel
Experimental: The unsynchronized cell lines (with FBW7 status specified in parentheses) were treated with 200 nM paclitaxel and were subsequently collected at the indicated time points for western blot and phospho-histone H3 ELISA analysis.

Mcl-1 = Mcl-1 protein level / degradation in mitotic arrest (western blot of synchronized cells); assay type: cell-based, human; details: synchronized cells (HeLa) released into the agent
Experimental: as §1
Western blotting was performed essentially as described (Wertz, I. E. et al. (2004) Science (New York, N.Y 303:1371-1374). In brief, cells were lysed in corrected FLAG elution buffer (CFEB) (19.17 mM Tris (pH 7.5), 916.7 μM MgCl2, 92.5 mM NaCl and 0.1% Triton X-100) with protease and phosphatase inhibitors; in some cases 6 M urea was added. Cleared lysates were quantitated and equal amounts of proteins were reduced, alkylated, separated by SDS-PAGE, and transferred onto PVDF membranes (Invitrogen) following standard procedures. Western blotting was performed as recommended by the respective antibody manufacturers. Patient tissue and xenograft samples were lysed in 5× volume of CFEB with protease inhibitors using Fast prep 24 (MP Biologicals). Tissue lysates were cleared and 40 μg total protein was prepared for western blotting analysis as described above. Immunoprecipitations were performed with the indicated antibodies as described (Willis, S. N. et al. (2007) Science (New York, N.Y 315:856-859; Wertz, I. E. et al. (2004) Science (New York, N.Y 303:1371-1374). PP2A activity was performed on PP2A or Mcl-1 immunoprecipitates as recommended by the manufacturer (Upstate)

[5] = tested on: MEFs in which genes encoding IAPs had been knocked out; test: Cell viability of MEF cell lines deficient in IAP genes (CellTiter-Glo); assay type: cell-based, murine; details: IAP-deficient MEFs plus siRNA, 48 hours
Experimental: as §1

[6] = tested on: TOV112D-X1 ovarian tumors; test: Ovarian tumor xenografts in vivo; parameters: species or system athymic nu/nu mice; details: tumors expressing FBW7-R505L vs FBW7-wild-type; 20 mg/kg intravenous, days 21 and 23 post implant
Experimental: Wild-type FBW7 TOV112D-X1 ovarian cancer cells expressing either an empty vector (vector) or the R505L point mutant (FBW7-R505L) were resuspended in Matrigel® (BD Biosciences) at a density of 1×10^8 cells/mL, and […] Matrigel® grafts containing 1×10^6 cancer cells were implanted under the kidney capsule of 8-week-old athymic nu/nu mice (Harlan Sprague Dawley). Only one graft was implanted per mouse. Once tumors became palpable on the kidney surface, tumor growth was assessed three times per week via caliper measurements of the entire kidney volume (0.523×length×width×height). On day 21 post-implant, when tumors reached an average volume of 700 mm^3, paclitaxel (APP Pharmaceuticals) was administered to both FBW7-WT and FBW7-R505L tumor groups via intravenous tail vein injection at 20 mg/kg in 5% dextrose water. Paclitaxel administration was repeated on day 23 post-implant. Statistical differences were evaluated using a two-tailed Student's t-test. P values of less than 0.05 were considered significant.

With `CC(=O)O[C@H]1C(=O)[C@@]2(C)[C@H]([C@H](OC(=O)c3ccccc3)[C@]3(O)CC(OC(=O)[C@H](O)[C@@H](NC(=O)c4ccccc4)c4ccccc4)C(C)=C1C3(C)C)[C@]1(OC(C)=O)CO[C@@H]1C[C@@H]2O` (relative stereo) [paclitaxel, β-(benzoylamino)-α-hydroxy-,6,12b-bis(acetyloxy)-12-(benzoyloxy)-2a,3,4,4a,5,6,9,10,11,12,12a,12b-dodecahydro-4,11-dihydroxy-4a,8,13,13-tetramethyl-5-oxo-7,11-methano-1H-cyclodeca(3,4)benz(1,2-b) oxet-9-ylester,(2aR-(2a-α,4-β,4a-β,6-β,9-α(α-R*,β-S*),11-α,12-α,12α-α,2b-α))-benzenepropanoic acid] the “drug-induced apoptosis upon decreasing Mcl-1 protein levels” value (HCT116 cells; FBW7-null cells with Mcl-1 shRNA vs control shRNA) was “enhanced”, the “exit from drug-induced mitotic arrest (mitotic slippage)” value (HCT116 cells; FBW7-null vs FBW7-wild-type cells) was “more readily” and the “sensitivity (cell viability)” value [1] was “sensitive”. The “killing (cell viability)” value ([2]; BAX−/−/BAK−/− MEFs) was “resistant”, the sensitivity to killing ([2]; BCL-X−/− MEFs vs wild-type) was “more sensitive than wild-type cells” and the sensitivity to killing ([2]; MCL-1−/− MEFs vs wild-type) was “enhanced sensitivity”. The “killing (cell viability)” value ([2]; wild-type MEFs) was “significantly more sensitive”, the “sensitivity to drug-induced death upon reducing Mcl-1 protein” value ([3]; FBW7-null HCT116 cells, doxycycline-inducible Mcl-1 shRNA) was “restored their sensitivity” and the “resistance to drug-induced cell death” value ([3]; FBW7-null cell lines relative to wild-type cells) was “more resistant”. The “resistance to drug-induced cell death” value ([3]; FBW7−/− or FBW7 mutant colon cancer cell lines relative to FBW7-WT) was “more resistant”, the mitotic arrest [4] was “arrested in mitosis” and the “Mcl-1 protein level in mitotic arrest” value (Mcl-1) was “declined markedly”. The “cell sensitivity upon ablation of IAP family proteins” value [5] was “does not enhance cell sensitivity” and the “tumor resistance (tumor volume growth curves)” value [6] was “more resistant”.
